Structures can show the parent of a compound that is named as a salt. Where two headings read alike, the source gives them in different places.
Columns and labels:
[1] = tested on: iCell endothelial cells (human iPSC-derived ECs); assay: High-content imaging cytotoxicity in iCell endothelial cells, 24 h; format: cell-based; conditions: Homo sapiens, Endothelial cell, 24 hr; for viability at 0.1 µM / activity at 0.1 µM: 0.10 µM
Procedure, shortened: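 Human iPSC-derived endothelial cells (passages 1–5) were grown to a fibronectin-coated monolayer, then exposed 24 h at 37 °C with 0.5% DMSO vehicle. Staining was Hoechst 33342, MitoTracker Orange and calcein AM, read by high-content imaging. Point of departure came from 4-parameter logistic fits, with a 1-SD vehicle cutoff and 100 µM as the top concentration.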

[2] = tested on: HUVECs; assay: Tube formation (tubulogenesis) assay in HUVECs, 18 h; format: cell-based, human; conditions: Homo sapiens, HUVEC, 18 h; for activity at 0.1 µM: 0.10 µM
Procedure, shortened: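 HUVECs (passage 1–5) seeded on reduced-growth-factor basement membrane and exposed to compounds overnight at 37°C, 5% CO2, in 2× maintenance medium with 12.5 ng/mL VEGF; 0.5% DMSO vehicle. Calcein AM-stained tube networks imaged and analysed; vehicle-normalized readouts fit to four-parameter logistic, POD set at one SD of vehicle means.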

[3] = iPSC-EC, 0.00 µM control = 100.00, read-out: endo.cyto.24hr
[4] = iPSC-EC, 0.00 µM control = 100.00, read-out: endo.mito.24hr
[5] = iPSC-EC, 0.00 µM control = 100.00, read-out: endo.mitoint.24hr
[6] = iPSC-EC, 0.00 µM control = 100.00, read-out: endo.nma.24hr
[7] = iPSC-EC, 0.00 µM control = 100.00, read-out: endo.tc.24hrs
[8] = HUVECs, 0.00 µM = 100.00, read-out: huvec.mtl.18hr
[9] = HUVECs, 0.00 µM = 100.00, read-out: huvec.tlps.18hr
[10] = HUVECs, 0.00 µM = 100.00, read-out: huvec.tta.18hr
[11] = HUVECs, 0.00 µM = 100.00, read-out: huvec.ttl.18hr

`Oc1ccc(-c2cccc(Cl)c2)cc1Cl` [4-OH PCB11] gave a viability at 0.01 µM [1, 3] of 99.5%, an activity at 0.01 µM [1, 4] of 99.5% and an activity at 0.01 µM [1, 5] of 103%. The activity at 0.01 µM [1, 6] was 103%, the viability at 0.01 µM [1, 7] was 99.5% and the viability at 0.1 µM [1, 3] was 102%. For the same compound, the activity at 0.1 µM [1, 4] was 102%, the activity at 0.1 µM [1, 5] was 94.9% and the activity at 0.1 µM [1, 6] was 99.2%. The viability at 0.1 µM [1, 7] was 102%, the viability at 1 µM [1, 3] was 97.1% and the activity at 1 µM [1, 4] was 96.8%. It also gave an activity at 1 µM [1, 5] of 97.1%, an activity at 1 µM [1, 6] of 102% and a viability at 1 µM [1, 7] of 97.1%. For the same compound, the viability at 10 µM [1, 3] was 106%, the activity at 10 µM [1, 4] was 106% and the activity at 10 µM [1, 5] was 92.4%. It also gave an activity at 10 µM [1, 6] of 97.2%, a viability at 10 µM [1, 7] of 106% and a viability at 100 µM [1, 3] of 57.3%. For the same compound, the activity at 100 µM [1, 4] was 52.7%, the activity at 100 µM [1, 5] was 68% and the activity at 100 µM [1, 6] was 88%. It also gave a viability at 100 µM [1, 7] of 78.1%, a minimal effective concentration ([1]; iPSC-EC, top concentration 100.00 µM, read-out: endo.cyto.24hr POD) of 43.6 µM and a minimal effective concentration ([1]; iPSC-EC, top concentration 100.00 µM, read-out: endo.mito.24hr POD) of 43.6 µM. The minimal effective concentration ([1]; iPSC-EC, top concentration 100.00 µM, read-out: endo.mitoint.24hr POD) was 13 µM, the minimal effective concentration ([1]; iPSC-EC, top concentration 100.00 µM, read-out: endo.nma.24hr POD) was 9.66 µM and the minimal effective concentration ([1]; iPSC-EC, top concentration 100.00 µM, read-out: endo.tc.24hrs POD) was 62.1 µM. For the same compound, the activity at 0.01 µM [2, 8] was 113%, the activity at 0.01 µM [2, 9] was 135% and the activity at 0.01 µM [2, 10] was 121%. It also gave an activity at 0.01 µM [2, 11] of 115%, an activity at 0.1 µM [2, 8] of 115% and an activity at 0.1 µM [2, 9] of 127%. The activity at 0.1 µM [2, 10] was 133%, the activity at 0.1 µM [2, 11] was 125% and the activity at 1 µM [2, 8] was 112%. It also gave an activity at 1 µM [2, 9] of 149%, an activity at 1 µM [2, 10] of 110% and an activity at 1 µM [2, 11] of 107%. It also gave an activity at 10 µM [2, 8] of 77.3%, an activity at 10 µM [2, 9] of 94.8% and an activity at 10 µM [2, 10] of 89.2%. The activity at 10 µM [2, 11] was 81.5%, the activity at 100 µM [2, 8] was 62.9% and the activity at 100 µM [2, 9] was 61.6%. The activity at 100 µM [2, 10] was 84.3%, the activity at 100 µM [2, 11] was 85.2% and the minimal effective concentration ([2]; HUVECs, top concentration 100.00 µM, read-out: huvec.mtl.18hr POD) was 7.09 µM. For the same compound, the minimal effective concentration ([2]; HUVECs, top concentration 100.00 µM, read-out: huvec.tlps.18hr POD) was 35.3 µM, the minimal effective concentration ([2]; HUVECs, top concentration 100.00 µM, read-out: huvec.tta.18hr POD) was 100 µM and the minimal effective concentration ([2]; HUVECs, top concentration 100.00 µM, read-out: huvec.ttl.18hr POD) was 4.15 µM.
Work on `O=S(=O)(O)Oc1cc(-c2ccccc2)ccc1Cl` [3-PCB 3 sulfate] yielded a minimal effective concentration ([1]; endothelial cells (endo), cyto, read-out: POD endo.cyto.24hr) of 100 µM, a minimal effective concentration ([1]; endothelial cells (endo), mito, read-out: POD endo.mito.24hr) of 100 µM and a minimal effective concentration ([1]; endothelial cells (endo), mitoint, read-out: POD endo.mitoint.24hr) of 100 µM. It also gave a minimal effective concentration ([1]; endothelial cells (endo), nma, read-out: POD endo.nma.24hr) of 100 µM, a minimal effective concentration ([1]; endothelial cells (endo), tc, read-out: POD endo.tc.24hr) of 100 µM and a minimal effective concentration ([2]; tube formation mtl, read-out: POD huvec.mtl.18hr) of 11.5 µM. For the same compound, the minimal effective concentration ([2]; tube formation tlps, read-out: POD huvec.tlps.18hr) was 65.8 µM, the minimal effective concentration ([2]; tube formation tta, read-out: POD huvec.tta.18hr) was 100 µM and the minimal effective concentration ([2]; tube formation ttl, read-out: POD huvec.ttl.18hr) was 52.1 µM.

Reference: publication PMC7377239, “Cardiovascular Effects of Polychlorinated Biphenyls and Their Major Metabolites” (Environmental Health Perspectives, 2020)
